Data from the supplement of paper PMC4862054.

What follows are molecules tested on HCC1937 (assay: normalised response (% of control), CellTox Green; higher = less cell death (100 = DMSO, 0 = benzethonium chloride kill control)). Settings: incubation time: 72 h.
Method in brief: (§1)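 Normalised signals at single concentrations make up the values. They come from breast cancer cell lines seeded (20 µl suspension) into 384-well plates with compound at 5 concentrations in 10-fold steps over a compound-specific 10,000-fold range, incubated 72 h, and read for CellTox Green fluorescence then CellTiter-Glo luminescence. Each plate was normalised to 0.1 % DMSO (100) and a positive kill control (0).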

SMILES | normalised response
CCCc1cc(C)[nH]c(=O)c1CNC(=O)c1cc(-c2ccnc(N3CCN(C)CC3)c2)cc2c1cnn2C(C)C [GSK343] (1000 nM) | 121%
COc1cc2c(cc1-c1c(C)noc1C)ncc1[nH]c(=O)n([C@H](C)c3ccccn3)c12 [I-BET151] (1000 nM) | 42.4%
CN1CCc2c(c3ccccc3n2Cc2ccc(C(=O)NO)cc2)C1 [Tubastatin A] (1000 nM) | 98%

The molecules below were run on HDQ-P1 in the same assay as above. Settings: incubation time: 72 h.
Method in brief: as §1

SMILES | normalised response
Cn1cc(C[C@@H](N)C(=O)O)c2ccccc21 [1-methyl-D-tryptophan] (500 nM) | 107%
CC[C@H](CC#N)OC(=O)N[C@@H](C)c1cccc(NC(=O)Nc2ccc(-c3cnco3)c(OC)c2)c1 [AVN944] (1000 nM) | 98.8%
CCc1cnn2c(NCc3ccc[n+]([O-])c3)cc(N3CCCC[C@H]3CCO)nc12 [Dinaciclib] (100 nM) | 63.2%
COc1cc(Nc2ncc(F)c(Nc3ccc4c(n3)N(COP(=O)(O)O)C(=O)C(C)(C)O4)n2)cc(OC)c1OC [Fostamatinib] (250 nM) | 109%
CC(C)NC[C@@H](C(=O)N1CCN(c2ncnc3c2[C@H](C)C[C@H]3O)CC1)c1ccc(Cl)cc1 [GDC-0068] (1000 nM) | 105%
CCCc1cc(C)[nH]c(=O)c1CNC(=O)c1cc(-c2ccnc(N3CCN(C)CC3)c2)cc2c1cnn2C(C)C [GSK343] (1000 nM) | 72.7%
CN1CCc2c(c3ccccc3n2Cc2ccc(C(=O)NO)cc2)C1 [Tubastatin A] (1000 nM) | 94.3%

The molecules below were run on Hs578T in the same assay as above. Settings: incubation time: 72 h.
Method in brief: as §1

SMILES | normalised response
CC(C)(C)Cn1c(N)nc2ccc(-c3[nH]c(C(C)(C)C)nc3-c3ccc(F)cc3)nc21 (1000 nM) | 80.6%
Cn1cc(C[C@@H](N)C(=O)O)c2ccccc21 [1-methyl-D-tryptophan] (500 nM) | 66.7%
CC[C@H](CC#N)OC(=O)N[C@@H](C)c1cccc(NC(=O)Nc2ccc(-c3cnco3)c(OC)c2)c1 [AVN944] (1000 nM) | 32%
CCc1cnn2c(NCc3ccc[n+]([O-])c3)cc(N3CCCC[C@H]3CCO)nc12 [Dinaciclib] (100 nM) | 38%
COc1cc(Nc2ncc(F)c(Nc3ccc4c(n3)N(COP(=O)(O)O)C(=O)C(C)(C)O4)n2)cc(OC)c1OC [Fostamatinib] (250 nM) | 97.7%
CC(C)NC[C@@H](C(=O)N1CCN(c2ncnc3c2[C@H](C)C[C@H]3O)CC1)c1ccc(Cl)cc1 [GDC-0068] (1000 nM) | 101%
CCCc1cc(C)[nH]c(=O)c1CNC(=O)c1cc(-c2ccnc(N3CCN(C)CC3)c2)cc2c1cnn2C(C)C [GSK343] (1000 nM) | 73.9%
COc1cc2c(cc1-c1c(C)noc1C)ncc1[nH]c(=O)n([C@H](C)c3ccccn3)c12 [I-BET151] (1000 nM) | 79.2%
CN1CCc2c(c3ccccc3n2Cc2ccc(C(=O)NO)cc2)C1 [Tubastatin A] (1000 nM) | 81.9%

What follows are molecules tested on MCF-10A in the same assay as above. Settings: incubation time: 72 h.
Method in brief: as §1

SMILES | normalised response
CC(C)(C)Cn1c(N)nc2ccc(-c3[nH]c(C(C)(C)C)nc3-c3ccc(F)cc3)nc21 (1000 nM) | 77.7%
Cn1cc(C[C@@H](N)C(=O)O)c2ccccc21 [1-methyl-D-tryptophan] (500 nM) | 113%
CC[C@H](CC#N)OC(=O)N[C@@H](C)c1cccc(NC(=O)Nc2ccc(-c3cnco3)c(OC)c2)c1 [AVN944] (1000 nM) | 112%
CCc1cnn2c(NCc3ccc[n+]([O-])c3)cc(N3CCCC[C@H]3CCO)nc12 [Dinaciclib] (100 nM) | 65%
COc1cc(Nc2ncc(F)c(Nc3ccc4c(n3)N(COP(=O)(O)O)C(=O)C(C)(C)O4)n2)cc(OC)c1OC [Fostamatinib] (250 nM) | 102%
CC(C)NC[C@@H](C(=O)N1CCN(c2ncnc3c2[C@H](C)C[C@H]3O)CC1)c1ccc(Cl)cc1 [GDC-0068] (1000 nM) | 74.4%
CCCc1cc(C)[nH]c(=O)c1CNC(=O)c1cc(-c2ccnc(N3CCN(C)CC3)c2)cc2c1cnn2C(C)C [GSK343] (1000 nM) | 107%
COc1cc2c(cc1-c1c(C)noc1C)ncc1[nH]c(=O)n([C@H](C)c3ccccn3)c12 [I-BET151] (1000 nM) | 109%
CN1CCc2c(c3ccccc3n2Cc2ccc(C(=O)NO)cc2)C1 [Tubastatin A] (1000 nM) | 110%

The molecules below were run on MDA-MB-231 in the same assay as above. Settings: incubation time: 72 h.
Method in brief: as §1

SMILES | normalised response
CC(C)(C)Cn1c(N)nc2ccc(-c3[nH]c(C(C)(C)C)nc3-c3ccc(F)cc3)nc21 (1000 nM) | 110%
Cn1cc(C[C@@H](N)C(=O)O)c2ccccc21 [1-methyl-D-tryptophan] (500 nM) | 95.6%
CC[C@H](CC#N)OC(=O)N[C@@H](C)c1cccc(NC(=O)Nc2ccc(-c3cnco3)c(OC)c2)c1 [AVN944] (1000 nM) | 81.8%
CCc1cnn2c(NCc3ccc[n+]([O-])c3)cc(N3CCCC[C@H]3CCO)nc12 [Dinaciclib] (100 nM) | -7.86%
COc1cc(Nc2ncc(F)c(Nc3ccc4c(n3)N(COP(=O)(O)O)C(=O)C(C)(C)O4)n2)cc(OC)c1OC [Fostamatinib] (250 nM) | 53.7%
CC(C)NC[C@@H](C(=O)N1CCN(c2ncnc3c2[C@H](C)C[C@H]3O)CC1)c1ccc(Cl)cc1 [GDC-0068] (1000 nM) | 106%
CCCc1cc(C)[nH]c(=O)c1CNC(=O)c1cc(-c2ccnc(N3CCN(C)CC3)c2)cc2c1cnn2C(C)C [GSK343] (1000 nM) | 106%
COc1cc2c(cc1-c1c(C)noc1C)ncc1[nH]c(=O)n([C@H](C)c3ccccn3)c12 [I-BET151] (1000 nM) | 123%
CN1CCc2c(c3ccccc3n2Cc2ccc(C(=O)NO)cc2)C1 [Tubastatin A] (1000 nM) | 98.7%

Each molecule was assayed on MDA-MB-436 in the same assay as above. Settings: incubation time: 72 h.
Method in brief: as §1

SMILES | normalised response
CC(C)(C)Cn1c(N)nc2ccc(-c3[nH]c(C(C)(C)C)nc3-c3ccc(F)cc3)nc21 (1000 nM) | 78.8%
Cn1cc(C[C@@H](N)C(=O)O)c2ccccc21 [1-methyl-D-tryptophan] (500 nM) | 88.9%
CC[C@H](CC#N)OC(=O)N[C@@H](C)c1cccc(NC(=O)Nc2ccc(-c3cnco3)c(OC)c2)c1 [AVN944] (1000 nM) | 74%
CCc1cnn2c(NCc3ccc[n+]([O-])c3)cc(N3CCCC[C@H]3CCO)nc12 [Dinaciclib] (100 nM) | 105%
COc1cc(Nc2ncc(F)c(Nc3ccc4c(n3)N(COP(=O)(O)O)C(=O)C(C)(C)O4)n2)cc(OC)c1OC [Fostamatinib] (250 nM) | 86.6%
CC(C)NC[C@@H](C(=O)N1CCN(c2ncnc3c2[C@H](C)C[C@H]3O)CC1)c1ccc(Cl)cc1 [GDC-0068] (1000 nM) | 113%
CCCc1cc(C)[nH]c(=O)c1CNC(=O)c1cc(-c2ccnc(N3CCN(C)CC3)c2)cc2c1cnn2C(C)C [GSK343] (1000 nM) | 79.6%
COc1cc2c(cc1-c1c(C)noc1C)ncc1[nH]c(=O)n([C@H](C)c3ccccn3)c12 [I-BET151] (1000 nM) | 99.7%
CN1CCc2c(c3ccccc3n2Cc2ccc(C(=O)NO)cc2)C1 [Tubastatin A] (1000 nM) | 106%

What follows are molecules tested on MDA-MB-453 in the same assay as above. Settings: incubation time: 72 h.
Method in brief: as §1

SMILES | normalised response
CC(C)(C)Cn1c(N)nc2ccc(-c3[nH]c(C(C)(C)C)nc3-c3ccc(F)cc3)nc21 (1000 nM) | 101%
Cn1cc(C[C@@H](N)C(=O)O)c2ccccc21 [1-methyl-D-tryptophan] (500 nM) | 103%
CC[C@H](CC#N)OC(=O)N[C@@H](C)c1cccc(NC(=O)Nc2ccc(-c3cnco3)c(OC)c2)c1 [AVN944] (1000 nM) | 90.3%
CCc1cnn2c(NCc3ccc[n+]([O-])c3)cc(N3CCCC[C@H]3CCO)nc12 [Dinaciclib] (100 nM) | 100%
COc1cc(Nc2ncc(F)c(Nc3ccc4c(n3)N(COP(=O)(O)O)C(=O)C(C)(C)O4)n2)cc(OC)c1OC [Fostamatinib] (250 nM) | 107%
CC(C)NC[C@@H](C(=O)N1CCN(c2ncnc3c2[C@H](C)C[C@H]3O)CC1)c1ccc(Cl)cc1 [GDC-0068] (1000 nM) | 97.8%
CCCc1cc(C)[nH]c(=O)c1CNC(=O)c1cc(-c2ccnc(N3CCN(C)CC3)c2)cc2c1cnn2C(C)C [GSK343] (1000 nM) | 97.6%
COc1cc2c(cc1-c1c(C)noc1C)ncc1[nH]c(=O)n([C@H](C)c3ccccn3)c12 [I-BET151] (1000 nM) | 106%
CN1CCc2c(c3ccccc3n2Cc2ccc(C(=O)NO)cc2)C1 [Tubastatin A] (1000 nM) | 105%

The molecules below were run on MDA-MB-468 in the same assay as above. Settings: incubation time: 72 h.
Method in brief: as §1

SMILES | normalised response
CC(C)(C)Cn1c(N)nc2ccc(-c3[nH]c(C(C)(C)C)nc3-c3ccc(F)cc3)nc21 (1000 nM) | 113%
Cn1cc(C[C@@H](N)C(=O)O)c2ccccc21 [1-methyl-D-tryptophan] (500 nM) | 143%
CC[C@H](CC#N)OC(=O)N[C@@H](C)c1cccc(NC(=O)Nc2ccc(-c3cnco3)c(OC)c2)c1 [AVN944] (1000 nM) | 131%
CCc1cnn2c(NCc3ccc[n+]([O-])c3)cc(N3CCCC[C@H]3CCO)nc12 [Dinaciclib] (100 nM) | -14.9%
COc1cc(Nc2ncc(F)c(Nc3ccc4c(n3)N(COP(=O)(O)O)C(=O)C(C)(C)O4)n2)cc(OC)c1OC [Fostamatinib] (250 nM) | 57%
CC(C)NC[C@@H](C(=O)N1CCN(c2ncnc3c2[C@H](C)C[C@H]3O)CC1)c1ccc(Cl)cc1 [GDC-0068] (1000 nM) | 95.5%
CCCc1cc(C)[nH]c(=O)c1CNC(=O)c1cc(-c2ccnc(N3CCN(C)CC3)c2)cc2c1cnn2C(C)C [GSK343] (1000 nM) | 183%
COc1cc2c(cc1-c1c(C)noc1C)ncc1[nH]c(=O)n([C@H](C)c3ccccn3)c12 [I-BET151] (1000 nM) | 117%
CN1CCc2c(c3ccccc3n2Cc2ccc(C(=O)NO)cc2)C1 [Tubastatin A] (1000 nM) | 131%

Each molecule was assayed on MFM-223 in the same assay as above. Settings: incubation time: 72 h.
Method in brief: as §1

SMILES | normalised response
CC(C)(C)Cn1c(N)nc2ccc(-c3[nH]c(C(C)(C)C)nc3-c3ccc(F)cc3)nc21 (1000 nM) | 99.5%
Cn1cc(C[C@@H](N)C(=O)O)c2ccccc21 [1-methyl-D-tryptophan] (500 nM) | 84.3%
CC[C@H](CC#N)OC(=O)N[C@@H](C)c1cccc(NC(=O)Nc2ccc(-c3cnco3)c(OC)c2)c1 [AVN944] (1000 nM) | 44.7%
CCc1cnn2c(NCc3ccc[n+]([O-])c3)cc(N3CCCC[C@H]3CCO)nc12 [Dinaciclib] (100 nM) | 30.3%
COc1cc(Nc2ncc(F)c(Nc3ccc4c(n3)N(COP(=O)(O)O)C(=O)C(C)(C)O4)n2)cc(OC)c1OC [Fostamatinib] (250 nM) | 101%
CC(C)NC[C@@H](C(=O)N1CCN(c2ncnc3c2[C@H](C)C[C@H]3O)CC1)c1ccc(Cl)cc1 [GDC-0068] (1000 nM) | 86.1%
COc1cc2c(cc1-c1c(C)noc1C)ncc1[nH]c(=O)n([C@H](C)c3ccccn3)c12 [I-BET151] (1000 nM) | 101%
CN1CCc2c(c3ccccc3n2Cc2ccc(C(=O)NO)cc2)C1 [Tubastatin A] (1000 nM) | 101%

The molecules below were run on BT-474 (assay: normalised response (% of control), CellTiter-Glo; higher = more viable cells (100 = DMSO, 0 = benzethonium chloride kill control)). Settings: incubation time: 72 h.
Method in brief: as §1

SMILES | normalised response
CC(C)(C)Cn1c(N)nc2ccc(-c3[nH]c(C(C)(C)C)nc3-c3ccc(F)cc3)nc21 (1000 nM) | 101%
Cn1cc(C[C@@H](N)C(=O)O)c2ccccc21 [1-methyl-D-tryptophan] (500 nM) | 97.6%
CC[C@H](CC#N)OC(=O)N[C@@H](C)c1cccc(NC(=O)Nc2ccc(-c3cnco3)c(OC)c2)c1 [AVN944] (1000 nM) | 58.7%
CCc1cnn2c(NCc3ccc[n+]([O-])c3)cc(N3CCCC[C@H]3CCO)nc12 [Dinaciclib] (100 nM) | 20.7%
COc1cc(Nc2ncc(F)c(Nc3ccc4c(n3)N(COP(=O)(O)O)C(=O)C(C)(C)O4)n2)cc(OC)c1OC [Fostamatinib] (250 nM) | 88.2%
CC(C)NC[C@@H](C(=O)N1CCN(c2ncnc3c2[C@H](C)C[C@H]3O)CC1)c1ccc(Cl)cc1 [GDC-0068] (1000 nM) | 89.5%
CCCc1cc(C)[nH]c(=O)c1CNC(=O)c1cc(-c2ccnc(N3CCN(C)CC3)c2)cc2c1cnn2C(C)C [GSK343] (1000 nM) | 103%
COc1cc2c(cc1-c1c(C)noc1C)ncc1[nH]c(=O)n([C@H](C)c3ccccn3)c12 [I-BET151] (1000 nM) | 77.8%
CN1CCc2c(c3ccccc3n2Cc2ccc(C(=O)NO)cc2)C1 [Tubastatin A] (1000 nM) | 91.7%
